Results from paper PMC8316439, “An enzymatic activation of formaldehyde for nucleotide methylation” (Nature Communications, 2021).

How the values were obtained:
ThyX [1] = molecular target: T1, ThyX (Thermotoga maritima, UniProt Q9WYT0); assay: anaerobic methylation assay with purified ThyX (MS, […]-NMR); stopped-flow of FADH−•dUMP complex; assay type: biochemical
T1 sequence (Q9WYT0 1-220): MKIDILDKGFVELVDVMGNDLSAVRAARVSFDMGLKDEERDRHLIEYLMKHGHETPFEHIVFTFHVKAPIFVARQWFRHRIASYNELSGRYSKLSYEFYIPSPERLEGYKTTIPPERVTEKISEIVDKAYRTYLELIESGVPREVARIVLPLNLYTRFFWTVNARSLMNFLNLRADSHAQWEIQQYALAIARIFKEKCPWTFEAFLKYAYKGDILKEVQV

ThyX [2] = molecular target: T1, ThyX; assay: stopped-flow kinetics of reduced ThyX-dUMP (kon/koff); assay type: binding

SMILES	anaerobic methylation assay with purified ThyX (MS, 13C-NMR); stopped-flow of FA (ThyX [1])	Kd (ThyX [2])
O=c1ccn([C@H]2C[C@H](O)[C@@H](COP(=O)(O)O)O2)c(=O)[nH]1 [dUMP]	confirmed the formation of dTMP only in the simultaneous presence of ThyX, NADPH, and CH2O	–
C=O [formaldehyde]	–	~20 mM
